Consider two compounds from patent US4261986A, “4-Halo etianic acids and derivatives thereof” (Syntex (U.S.A.) Inc., priority 1979, dated 1981).

The subject of one data set is thymus gland. Particulars: rat, in vivo, sc. Here is the method: The compounds to be tested for thymolytic activity including a hydrocortisone (HC) standard, were prepared in three or more concentrations by suspension in a sodium carboxymethyl-cellulose vehicle. Animals received the test materials by subcutaneous injection of 0.5 ml of the suspension on each of three successive days. Four hours following the final injection, the rats were sacrificed and the thymus gland of each animal removed and weighed. These weights are then employed to establish dose-response graphs by methods known in the art.

Data set [1] deals with normal adult human subjects (vasoconstriction). Description: topical anti-inflammatory activity, modified Stoughton/McKenzie vasoconstriction assay in humans. It is filed as in vivo. An excerpt:
The compounds of Formula (I) where R is alkyl of 1-6 carbon atoms, haloalkyl of 1-6 carbons or phenyl or benzyl optionally substituted on the phenyl ring with alkyl of 1-4 carbons, alkoxy of 1-4 carbons or halo and R^1, R^2, X^1, X^2, X^3 and X^4 are as defined in the broadest aspect of the invention are useful for the relief of inflamed conditions in mammals, and more specifically are useful for relieving inflammatory manifestations of corticosteroid responsive dermatoses. Initial approximation of anti-inflammatory activity is done by following the procedure of McKenzie, S. W. and Stoughton, R. B., "Methods for Comparing Percutaneous Absorption of Steroids" Arch Dermat, 86, (1962) or modifications thereof.
The topical anti-inflammatory activity potential for each compound was assayed using a modified Stoughton/-McKenzie vaso-constriction assay in humans, V. A. Place, et al, Arch. Dermat. 101, 531-537 (1970). Eight normal adult human subjects were treated on each forearm by topical administration with alcohol solutions containing 1×10^-5 and 1×10^-6 g/ml of each of the compounds to provide 64 total test sites for each compound in a series (32 for each concentration). […] Twenty-four hours after application, the presence of vasoconstriction is noted by visual examination, and expressed as the number of sites responding (vasoconstriction). […]

A short description of data set [2]: therapeutic advantage (topical potency versus systemic activity). It is filed as in vivo. Particulars: in words. The protocol: The topical anti-inflammatory activity potential for each compound was assayed using a modified Stoughton/-McKenzie vaso-constriction assay in humans, V. A. Place, et al, Arch. […]. 101, 531-537 (1970). Eight normal adult human subjects were treated on each forearm by topical administration with alcohol solutions containing 1×10^-5 and 1×10^-6 g/ml of each of the compounds to provide 64 total test sites for each compound in a series (32 for each concentration). Areas of the subjects' forearms were outlined by a rubber stamp grid coated with silicone grease, and 10 microliters are applied per 7×7 mm square site. After the preparations have dried, the areas on each forearm are covered with Saran® wrap and the margins sealed with tape. The occlusive wrap is removed after 18 hours. Twenty-four hours after application, the presence of vasoconstriction is noted by visual examination, and expressed as the number of sites responding (vasoconstriction). Fluocinolone acetonide is used as a standard. Also, the intensity of the vasoconstriction is scorred on a 0, 1, 2 scale, 2 being the most intense reaction. Both scores are used in constructing dose-response graphs according to methods set forth in an article by V. A. Place et al, infra. […]

The nature of data set [3]: LD50, single subcutaneous injection, mortality observed for 21 days. The format is in vivo, mouse. The settings on record: mouse, in vivo, sc; Swiss-Webster mice, subcutaneous, 21 days observation. The protocol: (§1) Six Swiss-Webster mice (Simonsen) each weighing about 25 grams, were injected subcutaneously with a solution of methyl 6α,9α-difluoro-11β-hydroxy-16α-methyl-3-oxo-17α-n-propionyloxyandrosta-1,4-diene 17β-thiocarboxylate in […] having a concentration of 10 ml/kg. The dosage was 25 mg/kg or about 0.625 mg/mouse. The mice were observed daily for mortality for 21 days.

Another data set relates to Swiss-Webster mice. The data set is described as above. Particulars: six mice, 25 mg/kg subcutaneous, 21 days. It is filed as in vivo, mouse. The protocol:
as §1

As for `CCC(=O)O[C@]1(C(=O)OC)[C@H](C)C[C@H]2[C@@H]3C[C@H](F)C4=C(F)C(=O)C=C[C@]4(C)[C@@]3(F)[C@@H](O)C[C@@]21C` [methyl 4,6α,9α-trifluoro-11β-hydroxy-16α-methyl-3-oxo-17α-propionyloxyandrosta-1,4-diene 17β-carboxylate], in the data set on thymus gland, the “systemic activity relative to HC” value turned out to be 10 times HC and the thymolytic activity result is on record as “slight activity in the dose range of hydrocortisone”. The “topical potency relative to FA” value in data set [1] (alcohol solutions 1×10^-5 and 1×10^-6 g/ml, fluocinolone acetonide standard) is given as 1-2 time FA. The topical potency entry in data set [1] (in words) is listed as “excellent topical potency”. For the same compound, the therapeutic advantage entry in data set [2] is “distinct therapeutic advantage”.
`CCC(=O)O[C@]1(C(=O)SC)[C@H](C)C[C@H]2[C@@H]3C[C@H](F)C4=CC(=O)C=C[C@]4(C)[C@@]3(F)[C@@H](O)C[C@@]21C` [methyl 6α,9α-difluoro-11β-hydroxy-16α-methyl-3-oxo-17α-n-propionyloxyandrosta-1,4-diene 17β-thiocarboxylate] yielded an LD50 at 504 h in data set [3] above 25 mg/kg. The mortality entry with Swiss-Webster mice is reported as “One mouse died”.
